Common to all, as to type: physicochemical
The nature of data set [1]: Dissolution test for L-DOPA ethyl ester/carbidopa dispersible tablets in water (USP dissolution apparatus, HPLC-UV). As to conditions: 100 ml purified water, room temperature, paddles 200 rpm. As for the experimental part:
The dissolution of L-DOPA ethyl ester and carbidopa dispersible tablets was measured in water at room temperature according to the following methodology which was designed to simulate the administration of these tablets to patients. The recommended use is to place a tablet (384 mg) for a few seconds in about 100 mls of water, and to dissolve while swirling or stirring. The suspension should be drunk within 30 minutes. In order to automate the measurement, a USP 6-Pot Dissolution Apparatus is used. Each of 6 tablets are dissolved in 100 ml of purified water in a 200 ml vessel at room temperature (23±2° C.). This is the minimum volume which may be used with the USP Dissolution Apparatus. The solutions are stirred with paddles rotating at 200 rpm, which simulates the turbulence caused when the solution is stirred in a cup, with a teaspoon. […] In this experiment specifically, the amount of L-DOPA ethyl ester or carbidopa is determined by using a 10 cm C18 column, based on 3 μ-diameter spherical silica particles with 100 Å pore size. The elution solvents comprise a gradient of acetonitrile and phosphate buffer with ion-pairing reagent (at pH 2.7). The detection technique is ultraviolet absorption at 280 nm, the wavelength of maximum absorption for both L-DOPA ethyl ester and Carbidopa.

A short description of data set [2]: Stability of L-DOPA ethyl ester composition on incubation at 40° C. As to conditions: after incubation for 6 months at 40° C.
Data set [3] in a line: L-DOPA ethyl ester degradation in solution and tablets, measured as level of L-DOPA over six months. As to conditions: oral solution acidified with HCl. As to the method: A comparison of L-DOPA ethyl ester (LDEE) degradation in LDEE oral solution (4° C.), and in two environmental conditions of LDEE and Carbidopa dispersible tablets (at 25° C./60% RH and at 40° C./75% RH), was performed by measuring the change in levels of L-DOPA in samples over a six month period of time. L-DOPA is the main degradation product of L-DOPA ethyl ester. Elevation in the level of L-DOPA indicates degradation of LDEE.
The change in the level of L-DOPA with time, expressed as percent of the concentration of LDEE in the sample, was determined in LDEE and Carbidopa Dispersible Tablets (Formulation V, packed in aluminum blisters) and in LDEE oral solution (packed in PET bottles). The composition of the solution was (per 1 ml): 57.1 mg LDEE, 1.2 mg Methylparaben, 1.6 mg Saccharin sodium, 0.1 mg Edetate disodium and cherry flavor. The solution was acidified with HCl to pH 4.0, in which the stability of LDEE is maximal. The solution was kept in refrigeration (4° C.) while the tablets were kept at room conditions (25° C. and 60% relative humidity) or in accelerated stability conditions (40° C. and 75% relative humidity). The results are shown below in Table 4 and in FIG. 4: […]

Consider `C[C@@](Cc1ccc(O)c(O)c1)(NN)C(=O)O` [Carbidopa, reference compound], for which the “Percentage of Dissolution” value is listed as 64.3% in data set [1] (1 minute), 87.6% in data set [1] (2 minutes) and 101.4% in data set [1] (5 minutes).
For the compound `CCOC(=O)[C@@H](N)Cc1ccc(O)c(O)c1` [L-DOPA Ethyl Ester, L-DOPA ethyl ester], in data set [2], the “L-DOPA ethyl ester content remaining” value is “at least 97 % by weight of the active ingredient”. The figures for the “Percentage of Dissolution” value in data set [1] (1 minute), in data set [1] (2 minutes) and in data set [1] (5 minutes) were 67.2%, 90.1% and 102.7%, respectively. In addition, in data set [3], the “pH at which the stability of LDEE is maximal” value is given as 4.0.

The values are drawn from patent US6703424B2, “Dispersible compositions containing L-DOPA ethyl ester” (Teva Pharmaceutical Industries, Ltgd., priority 1998, dated 2004).
